Assay: xn = mol fraction of the nth substance listed
Conditions: 100.7 kPa, Liquid; for viscosity: Falling or rolling sphere viscometry; for speed of sound: Frequency=3 MHz, Sing-around technique in a fixed-path interferometer; for mass density: Vibrating tube method

CCCC=O [butanal] + CCCC[n+]1ccn(C)c1.O=S(=O)([N-]S(=O)(=O)C(F)(F)F)C(F)(F)F
Conditions	mass density [kg/m3]	speed of sound [m/s]	viscosity [mPa·s]
298.15 K, x2 = 0	796.99	1193.8	0.43
298.15 K, x2 = 0.0222	–	1192	–
298.15 K, x2 = 0.0464	–	1190.7	–
298.15 K, x2 = 0.0748	–	1189.2	–
298.15 K, x2 = 0.1056	979.73	1187.5	1.53
298.15 K, x2 = 0.2135	1105.53	1191.7	3.32
298.15 K, x2 = 0.3088	1185.23	1196.2	5.62
298.15 K, x2 = 0.4153	1251.86	1200.5	8.98
298.15 K, x2 = 0.5025	1294.27	1204.2	12.42
298.15 K, x2 = 0.5987	1332.31	1208.6	16.22
298.15 K, x2 = 0.6852	1360.82	1213.2	20.37
298.15 K, x2 = 0.7729	1385.61	1217.5	25.55
298.15 K, x2 = 0.8852	1412.72	1223.9	34.29
303.15 K, x2 = 0	791.8	1172.7	0.4
303.15 K, x2 = 0.0222	–	1171.6	–
303.15 K, x2 = 0.0464	–	1170.9	–
303.15 K, x2 = 0.0748	–	1170	–
303.15 K, x2 = 0.1056	975.4	1169	1.24
303.15 K, x2 = 0.2135	1101.73	1173.6	2.62
303.15 K, x2 = 0.3088	1181.18	1179.9	4.29
303.15 K, x2 = 0.4153	1247.94	1185.4	6.76
303.15 K, x2 = 0.5025	1290.44	1189.5	9.23
303.15 K, x2 = 0.5987	1328.49	1195.7	12.08
303.15 K, x2 = 0.6852	1356.74	1200.6	15.05
303.15 K, x2 = 0.7729	1381.37	1206.6	19.07
303.15 K, x2 = 0.8852	1408.37	1213.6	26.85
308.15 K, x2 = 0	786.41	1151.6	0.39
308.15 K, x2 = 0.0222	–	1150.1	–
308.15 K, x2 = 0.0464	–	1149.4	–
308.15 K, x2 = 0.0748	–	1148.8	–
308.15 K, x2 = 0.1056	971.06	1149.6	0.98
308.15 K, x2 = 0.2135	1097.08	1154.8	1.98
308.15 K, x2 = 0.3088	1176.97	1161.6	3.18
308.15 K, x2 = 0.4153	1243.96	1168.7	4.87
308.15 K, x2 = 0.5025	1286.66	1174.3	6.66
308.15 K, x2 = 0.5987	1324.67	1180.5	8.73
308.15 K, x2 = 0.6852	1352.96	1186.4	10.93
308.15 K, x2 = 0.7729	1377.44	1193.6	14.71
308.15 K, x2 = 0.8852	1404.09	1201	21.85
313.15 K, x2 = 0	781.37	1130.6	0.36
313.15 K, x2 = 0.0222	–	1129.3	–
313.15 K, x2 = 0.0464	–	1128.5	–
313.15 K, x2 = 0.0748	–	1127.9	–
313.15 K, x2 = 0.1056	966.81	1129.2	0.8
313.15 K, x2 = 0.2135	1092.97	1136.5	1.53
313.15 K, x2 = 0.3088	1173.06	1144.7	2.39
313.15 K, x2 = 0.4153	1240.28	1152.6	3.69
313.15 K, x2 = 0.5025	1282.97	1159.6	5.13
313.15 K, x2 = 0.5987	1320.95	1166.8	6.82
313.15 K, x2 = 0.6852	1349.19	1174.2	8.86
313.15 K, x2 = 0.7729	1373.41	1181.8	11.8
313.15 K, x2 = 0.8852	1399.8	1189.6	17.93
318.15 K, x2 = 0	776.39	1109.6	0.35
318.15 K, x2 = 0.0222	–	1108.4	–
318.15 K, x2 = 0.0464	–	1107.7	–
318.15 K, x2 = 0.0748	–	1107	–
318.15 K, x2 = 0.1056	961.43	1109	0.69
318.15 K, x2 = 0.2135	1088.71	1118.4	1.23
318.15 K, x2 = 0.3088	1169.26	1128.2	1.96
318.15 K, x2 = 0.4153	1236.78	1137.7	2.96
318.15 K, x2 = 0.5025	1279.56	1145.2	4.06
318.15 K, x2 = 0.5987	1317.62	1153.1	5.62
318.15 K, x2 = 0.6852	1345.51	1162.1	7.72
318.15 K, x2 = 0.7729	1369.39	1170.1	10.43
318.15 K, x2 = 0.8852	1395.55	1179.3	15.49
323.15 K, x2 = 0	771.3	1088.8	0.32
323.15 K, x2 = 0.0222	–	1087.5	–
323.15 K, x2 = 0.0464	–	1086.7	–
323.15 K, x2 = 0.0748	–	1086.1	–
323.15 K, x2 = 0.1056	957.54	1087.8	0.56
323.15 K, x2 = 0.2135	1084.6	1099.2	0.94
323.15 K, x2 = 0.3088	1165.17	1110.2	1.43
323.15 K, x2 = 0.4153	1232.87	1120.3	2.24
323.15 K, x2 = 0.5025	1275.6	1128.5	3.07
323.15 K, x2 = 0.5987	1313.47	1138.5	4.43
323.15 K, x2 = 0.6852	1341.63	1147.2	6.21
323.15 K, x2 = 0.7729	1365.48	1156.5	8.42
323.15 K, x2 = 0.8852	1391.08	1166.2	12.99
